Columns and labels:
Assay type in all cases: in vivo
[1] = test system: small-flower umbrella sedge (Cyperus difformis); test: Test C flooded paddy test plant response; conditions: Flood, 250 g ai/ha; scale of 0 to 100 where 0 is no effect and 100 is complete control; 13 to 15 days
Summary of the method: (§1)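 Scale 0 (no effect) to 100 (complete control), assigned visually versus controls after 13–15 d greenhouse. Application: directly to paddy water, 3 cm flood depth kept constant, 2-leaf stage.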

[2] = test system: rice (Oryza sativa); test: Test C flooded paddy test plant response; conditions: Flood, 250 g ai/ha; scale of 0 to 100 where 0 is no effect and 100 is complete control; 13 to 15 days
Summary of the method: as §1

[3] = test system: ducksalad (Heteranthera limosa); test: Test C flooded paddy test plant response; conditions: Flood, 250 g ai/ha; scale of 0 to 100 where 0 is no effect and 100 is complete control; 13 to 15 days
Summary of the method: as §1

[4] = test system: barnyardgrass (Echinochloa crus-galli); test: Test C flooded paddy test plant response; conditions: Flood, 250 g ai/ha; scale of 0 to 100 where 0 is no effect and 100 is complete control; 13 to 15 days
Summary of the method: as §1

[5] = test system: oilseed rape (Brassica napus); test: Test D pre-/postemergence plant response; conditions: Postemergence; for Oilseed Rape plant response rating: 31 g ai/ha, scale 0 to 100 (0 no effect, 100 complete control); for Plant response rating, Oilseed Rape: scale 0 to 100, 0 no effect, 100 complete control
Summary of the method: (§2)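 0 = no effect, 100 = complete control: plants were scored this way by visual comparison with controls 13 to 15 days post-treatment. Application was preemergence to sown loam/sand pots or postemergence to 2–18 cm seedlings in peat-based mix.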

[6] = test system: Italian ryegrass (Lolium multiflorum); test: Test D pre-/postemergence plant response; conditions: Postemergence; for Ryegrass, Italian plant response rating: 31 g ai/ha, scale 0 to 100 (0 no effect, 100 complete control); for Plant response rating, Ryegrass, Italian: scale 0 to 100, 0 no effect, 100 complete control
Summary of the method: as §2

[7] = test system: lambsquarters (Chenopodium album); test: Test D pre-/postemergence plant response; conditions: Postemergence; for Lambsquarters plant response rating: 31 g ai/ha, scale 0 to 100 (0 no effect, 100 complete control); for Plant response rating, Lambsquarters: scale 0 to 100, 0 no effect, 100 complete control
Summary of the method: as §2

[8] = test system: velvetleaf (Abutilon theophrasti); test: Test D pre-/postemergence plant response; conditions: Postemergence; for Velvetleaf plant response rating: 31 g ai/ha, scale 0 to 100 (0 no effect, 100 complete control); for Plant response rating, Velvetleaf: scale 0 to 100, 0 no effect, 100 complete control
Summary of the method: as §2

[9] = test system: winter wheat (Triticum aestivum); test: Test D pre-/postemergence plant response; conditions: Postemergence; for Wheat plant response rating: 31 g ai/ha, scale 0 to 100 (0 no effect, 100 complete control); for Plant response rating, Wheat: scale 0 to 100, 0 no effect, 100 complete control
Summary of the method: as §2

[10] = test system: galium (catchweed bedstraw, Galium aparine); test: Test D pre-/postemergence plant response; conditions: Postemergence; for Galium plant response rating: 31 g ai/ha, scale 0 to 100 (0 no effect, 100 complete control); for Plant response rating, Galium: scale 0 to 100, 0 no effect, 100 complete control
Summary of the method: as §2

[11] = test system: corn (Zea mays); test: Test D pre-/postemergence plant response; conditions: Postemergence; for Corn plant response rating: scale 0 to 100 (0 no effect, 100 complete control); for Plant response rating, Corn: scale 0 to 100, 0 no effect, 100 complete control
Summary of the method: as §2

[12] = test system: kochia (Kochia scoparia); test: Test B pre-/postemergence plant response
Summary of the method: (§3)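 Steps: plant seeds in loam soil–sand mix; spray soil preemergence, and in parallel spray 2–10 cm one- to two-leaf plants postemergence; hold ~10 days in greenhouse; visually rate injury against untreated controls (0 = no effect, 100 = complete control).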

[13] = test system: Italian ryegrass (Lolium multiflorum); test: Test B pre-/postemergence plant response
Summary of the method: as §3

[14] = test system: ragweed (common ragweed, Ambrosia elatior); test: Test B pre-/postemergence plant response
Summary of the method: as §3

[15] = 31 g ai/ha, Preemergence, 0 to 100 scale where 0 is no effect and 100 is complete control
[16] = 125 g ai/ha, postemergence, 0 to 100 scale, 0 no effect, 100 complete control
[17] = Postemergence, 31 g ai/ha, 0 to 100 scale (0 no effect, 100 complete control)
[18] = Preemergence, 125 g ai/ha, 0 to 100 scale (0 no effect, 100 complete control)
[19] = Postemergence, 500 g ai/ha, 0 to 100 scale (0 no effect, 100 complete control)
[20] = Preemergence, 500 g ai/ha, 0 to 100 scale where 0 is no effect and 100 is complete control

| Compound | Sedge, Umbrella plant response rating [1] | Rice plant response rating [2] | Ducksalad plant response rating [3] | Barnyardgrass plant response rating [4] | Oilseed Rape plant response rating [5] | Plant response rating, Oilseed Rape ([5]; 62 g ai/ha) | Plant response rating, Oilseed Rape ([5]; 125 g ai/ha) | Ryegrass, Italian plant response rating [6] | Plant response rating, Ryegrass, Italian ([6]; 62 g ai/ha) | Plant response rating, Ryegrass, Italian ([6]; 125 g ai/ha) | Lambsquarters plant response rating [7] | Plant response rating, Lambsquarters ([7]; 62 g ai/ha) | Plant response rating, Lambsquarters ([7]; 125 g ai/ha) | Velvetleaf plant response rating [8] | Plant response rating, Velvetleaf ([8]; 62 g ai/ha) | Plant response rating, Velvetleaf ([8]; 125 g ai/ha) | Wheat plant response rating [9] | Plant response rating, Wheat ([9]; 62 g ai/ha) | Plant response rating, Wheat ([9]; 125 g ai/ha) | Galium plant response rating [10] | also measured |
| --- | --- | --- | --- | --- | --- | --- | --- | --- | --- | --- | --- | --- | --- | --- | --- | --- | --- | --- | --- | --- | --- |
| CC(F)(F)c1cc(-c2ccccc2Oc2ncc(Br)cn2)no1 [Compound 149] | 65 | 0 | 80 | 0 | 30 | 60 | 85 | 0 | 0 | 0 | 70 | 80 | 85 | 30 | 40 | 65 | 0 | 0 | 10 | 60 | Plant response rating, Galium ([10]; 62 g ai/ha): 70; Plant response rating, Galium ([10]; 125 g ai/ha): 95; Corn plant response rating ([11]; 16 g ai/ha): 0; Corn plant response rating ([11]; 31 g ai/ha): 5; Plant response rating, Corn ([11]; 62 g ai/ha): 5; Plant response rating, Corn ([11]; 125 g ai/ha): 5; Plant response rating, Kochia [12, 15]: 20; Plant response rating, Kochia [12, 16]: 100; Plant response rating, Kochia [12, 17]: 90; Kochia plant response rating [12, 18]: 80; Plant response rating, Ryegrass, Italian [13, 15]: 0; Plant response rating, Ryegrass, Italian [13, 16]: 20; Plant response rating, Ryegrass, Italian [13, 17]: 0; Ryegrass, Italian plant response rating [13, 18]: 10; Plant response rating, Ragweed [14, 15]: 0; Plant response rating, Ragweed [14, 16]: 20; Plant response rating, Ragweed [14, 17]: 10; Ragweed plant response rating [14, 18]: 0 |
| Cc1cc(-c2ccccc2Oc2ncc(Cl)cn2)no1 [Compound 153] | 0 | 0 | 0 | 0 | 40 | 60 | 85 | 0 | 0 | 0 | 35 | 30 | 50 | 20 | 60 | 50 | 0 | 5 | 10 | 70 | Plant response rating, Galium ([10]; 62 g ai/ha): 70; Plant response rating, Galium ([10]; 125 g ai/ha): 80; Corn plant response rating ([11]; 16 g ai/ha): 0; Corn plant response rating ([11]; 31 g ai/ha): 0; Plant response rating, Corn ([11]; 62 g ai/ha): 5; Plant response rating, Corn ([11]; 125 g ai/ha): 5; Plant response rating, Kochia [12, 16]: 90; Plant response rating, Kochia [12, 19]: 90; Kochia plant response rating [12, 18]: 20; Plant response rating, Kochia [12, 20]: 100; Plant response rating, Ryegrass, Italian [13, 16]: 30; Plant response rating, Ryegrass, Italian [13, 19]: 60; Ryegrass, Italian plant response rating [13, 18]: 0; Plant response rating, Ryegrass, Italian [13, 20]: 20; Plant response rating, Ragweed [14, 16]: 20; Plant response rating, Ragweed [14, 19]: 100; Ragweed plant response rating [14, 18]: 0; Plant response rating, Ragweed [14, 20]: 40 |

From patent US10131652B2, “Pyrimidinyloxy benzene derivatives as herbicides” (E. I. DU PONT DE NEMOURS AND COMPANY, priority 2014, dated 2018)
